Assay results reported in US4536346A, “Aralkanamidophenyl compounds” (American Cyanamid Company, priority 1983, dated 1985).

What follows are molecules tested against T1, fatty acyl CoA: cholesterol acyl transferase (ACAT) (Rattus norvegicus, UniProt O70536) (assay: Inhibition of enzymatic esterification of cholesterol (ACAT) in rat adrenal supernatant containing the microsomal fraction). Conditions: final concentration of test compound 5.2 μg./ml., percent inhibition of the ACAT enzyme compared to control values.
T1 construct: The supernatant, containing the microsomal fraction, served as the source of the cholesterol-esterifying enzyme; from tissue; host or cells: rat adrenals (1,000 x g supernatant containing the microsomal fraction)
T1 sequence (O70536 1-545): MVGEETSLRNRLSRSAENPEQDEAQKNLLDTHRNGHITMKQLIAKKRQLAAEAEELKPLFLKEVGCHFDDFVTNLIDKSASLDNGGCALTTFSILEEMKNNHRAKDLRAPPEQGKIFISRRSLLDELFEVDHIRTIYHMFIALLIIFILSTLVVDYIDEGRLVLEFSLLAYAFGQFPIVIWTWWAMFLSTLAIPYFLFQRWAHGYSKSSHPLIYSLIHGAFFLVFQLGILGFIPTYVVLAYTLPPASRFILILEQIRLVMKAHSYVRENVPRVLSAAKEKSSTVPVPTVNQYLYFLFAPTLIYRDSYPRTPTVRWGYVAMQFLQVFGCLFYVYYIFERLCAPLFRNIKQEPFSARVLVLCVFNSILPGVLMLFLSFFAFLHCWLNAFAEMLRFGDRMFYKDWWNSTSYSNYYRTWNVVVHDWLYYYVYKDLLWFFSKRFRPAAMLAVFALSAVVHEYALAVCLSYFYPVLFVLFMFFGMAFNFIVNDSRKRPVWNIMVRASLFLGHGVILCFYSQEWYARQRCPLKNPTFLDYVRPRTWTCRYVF
Assay type: biochemical
Protocol: The compounds of the present invention were tested for their ability to inhibit the enzymatic esterification of cholesterol according to the following procedure:
Rat adrenals were homogenized in 0.2M monobasic potassium phosphate buffer, pH 7.4, and centrifuged at 1,000 times gravity for 15 minutes at 5° C. The supernatant, containing the microsomal fraction, served as the source of the cholesterol-esterifying enzyme, fatty acyl CoA: cholesterol acyl transferase (ACAT). A mixture comprising 50 parts of adrenal supernatant, 10 parts of albumin (BSA) (50 mg./ml.), […], 3 parts of test compound, and 500 parts of buffer was pre-incubated at 37° C. for 10 minutes. After treatment with 20 parts of oleoyl CoA (^14 C-0.4 μCi), the mixture was incubated at 37° C. for 10 minutes. A control mixture, omitting the test compound, was prepared and treated in the same manner. The lipids from the incubation mixture were extracted into an organic solvent and separated by thin-layer chromatography. The cholesterol ester fraction was counted in a scintillation counter. This procedure is a modification of that described by Hashimoto, et al., Life Scie., 12 (Part II), 1-12 (1973).
The results of this test on representative compounds of this invention appear in Table I. The final concentration of the test compound was 5.2 μg./ml., and the effectiveness of the compound is expressed as percent inhibition of the ACAT enzyme compared to control values.
Molecule `COC(=O)c1ccccc1NC(=O)C=C(c1ccc(Cl)cc1)c1ccc(Cl)cc1` [2-[3,3-Bis(p-chlorophenyl)acrylamido]benzoic acid, methyl ester] has an inhibition at 5.2 µg/mL of 71%.
`O=C(C=C(c1ccc(Cl)cc1)c1ccc(Cl)cc1)Nc1ccccc1C(=O)O` [2-[3,3-Bis(p-chlorophenyl)acrylamido]benzoic acid] showed an inhibition at 5.2 µg/mL of 32%.
`O=C(C=C(c1ccc(Cl)cc1)c1ccc(Cl)cc1)Nc1cccc(C(=O)O)c1` [3 - [3,3-Bis(p-chlorophenyl)acrylamido]benzoic acid] showed an inhibition at 5.2 µg/mL of 98%.
`N#Cc1ccc(NC(=O)C=C(c2ccc(Cl)cc2)c2ccc(Cl)cc2)cc1` [3,3-Bis(p-chlorophenyl-4'-cyanoacrylanilide] showed an inhibition at 5.2 µg/mL of 96%.
`COC(=O)c1cccc(NC(=O)C=C(c2ccc(Cl)cc2)c2ccc(Cl)cc2)c1` [3-[3,3-Bis(p-chlorophenyl)acrylamido]benzoic acid, methyl ester] was tested, and the inhibition at 5.2 µg/mL was 94%.
In the case of `CC(=O)c1ccc(NC(=O)C=C(c2ccc(Cl)cc2)c2ccc(Cl)cc2)cc1` [4'-Acetyl-3,3-bis(p-chlorophenyl)acrylanilide], the inhibition at 5.2 µg/mL is reported as 86%.
Molecule `COc1ccc(C(CC(=O)Nc2ccc(C(C)=O)cc2)c2ccc(OC)cc2)cc1` [4'-[3,3-Bis(4-methoxyphenyl)propionamido]acetophenone] has an inhibition at 5.2 µg/mL of 82%.
For `COc1ccc(C(CC(=O)Nc2ccc(C(=O)O)cc2)c2ccc(OC)cc2)cc1` [4'-[3,3-Bis(4-methoxyphenyl)propionamido]benzoic acid], the inhibition at 5.2 µg/mL was 45%.
`O=C(C=C(c1ccccc1)c1ccccc1)Nc1ccc(C(=O)O)cc1` [4-(3,3-Diphenylacrylamido)benzoic acid] was tested, and the inhibition at 5.2 µg/mL was 66%.
In the case of `CCOC(=O)c1ccc(NC(=O)C=C(C)c2ccc(Cl)c(Cl)c2)cc1` [4-(3,4-Dichlorophenyl-β-methylacrylamido)benzoic acid, ethyl ester], the inhibition at 5.2 µg/mL is reported as 74%.
With `CCOC(=O)c1ccc(NC(=O)C=C(c2ccccc2)c2ccc(Cl)c([N+](=O)[O-])c2)cc1` [4-(4-Chloro-3-nitro-β-phenylcinnamamido)benzoic acid, ethyl ester] the inhibition at 5.2 µg/mL was 94%.
`CCOC(=O)c1ccc(NC(=O)C=C(C)c2ccc(Cl)cc2)cc1` [4-(p-Chloro-β-methylcinnamamido)benzoic acid, ethyl ester] gave an inhibition at 5.2 µg/mL of 74%.
`CC(=CC(=O)Nc1ccc(C(=O)O)cc1)c1ccc(Cl)cc1` [4-(p-Chloro-β-methylcinnamamido)benzoic acid] was tested, and the inhibition at 5.2 µg/mL was 71%.
For `CCOC(=O)c1ccc(NC(=O)C=C(c2ccccc2)c2ccc(Cl)cc2)cc1` [4-(p-Chloro-β-phenylcinnamamido)benzoic acid, ethyl ester], the inhibition at 5.2 µg/mL was 92%.
`O=C(C=C(c1ccccc1)c1ccc(Cl)cc1)Nc1ccc(C(=O)O)cc1` [4-(p-Chloro-β-phenylcinnamamido)benzoic acid] was tested, and the inhibition at 5.2 µg/mL was 77%.
In the case of `CCOC(=O)c1ccc(NC(=O)C=Cc2ccc(Cl)cc2)cc1` [4-(p-Chlorocinnamamido)benzoic acid, ethyl ester], the inhibition at 5.2 µg/mL is reported as 51%.
`CCOC(=O)c1ccc(NC(=O)CCc2ccc(Cl)cc2)cc1` [4-(p-Chlorohydrocinnamamido)benzoic acid, ethyl ester] gave an inhibition at 5.2 µg/mL of 30%.
`O=C(CCc1ccc(Cl)cc1)Nc1ccc(C(=O)O)cc1` [4-(p-Chlorohydrocinnamamido)benzoic acid] was tested, and the inhibition at 5.2 µg/mL was 33%.
Work on `O=C(CCCCCc1ccc(Cl)cc1)Nc1ccc(C(=O)O)cc1` [4-(p-Chlorophenyl)hexanamidobenzoic acid, 4-[6-(p-Chlorophenyl)hexanamido]benzoic acid] yielded an inhibition at 5.2 µg/mL of 18%.
`CCOC(=O)c1ccc(NC(=O)C=Cc2ccc(OC)cc2)cc1` [4-(p-Methoxycinnamamido)benzoic acid, ethyl ester] showed an inhibition at 5.2 µg/mL of 53%.
Molecule `COc1ccc(C=CC(=O)Nc2ccc(C(=O)O)cc2)cc1` [4-(p-Methoxycinnamamido)benzoic acid] has an inhibition at 5.2 µg/mL of 20%.
`CCOC(=O)c1ccc(NC(=O)CCc2ccc(OC)cc2)cc1` [4-(p-Methoxyhydrocinnamamido)benzoic acid, ethyl ester] showed an inhibition at 5.2 µg/mL of 28%.
`CCOC(=O)c1ccc(NC(=O)C=C(c2ccccc2)c2ccc(C)cc2)cc1` [4-(p-Methyl-β-phenylcinnamamido)benzoic acid, ethyl ester] was tested, and the inhibition at 5.2 µg/mL was 88%.
Work on `Cc1ccc(C(=CC(=O)Nc2ccc(C(=O)O)cc2)c2ccccc2)cc1` [4-(p-Methyl-β-phenylcinnamamido)benzoic acid] yielded an inhibition at 5.2 µg/mL of 80%.
Work on `CCOC(=O)c1ccc(NC(=O)CCc2ccc(C)cc2)cc1` [4-(p-Methylhydrocinnamamido)benzoic acid, ethyl ester] yielded an inhibition at 5.2 µg/mL of 25%.
`O=C(C=Cc1ccc(Cl)cc1)Nc1ccc(C(=O)O)cc1` [4-(p-chlorocinnamamido)benzoic acid, 4-(p-Chlorocinnamamido)benzoic acid] gave an inhibition at 5.2 µg/mL of 41%.
For `CCOC(=O)c1ccc(NC(=O)C(c2ccc(Cl)cc2)c2ccc(Cl)cc2)cc1` [4-[2,2-Bis(p-chlorophenyl)acetamido]benzoic acid, ethyl ester], the inhibition at 5.2 µg/mL was 86%.
In the case of `O=C(O)c1ccc(NC(=O)C(c2ccc(Cl)cc2)c2ccc(Cl)cc2)cc1` [4-[2,2-Bis(p-chlorophenyl)acetamido]benzoic acid], the inhibition at 5.2 µg/mL is reported as 71%.
Molecule `CCOC(=O)c1ccc(NC(=O)C=C(c2ccc(Br)cc2)c2ccc(Br)cc2)cc1` [4-[3,3-Bis(p-bromophenyl)acrylamido]benzoic acid, ethyl ester] has an inhibition at 5.2 µg/mL of 96%.
Work on `O=C(C=C(c1ccc(Br)cc1)c1ccc(Br)cc1)Nc1ccc(C(=O)O)cc1` [4-[3,3-Bis(p-bromophenyl)acrylamido]benzoic acid] yielded an inhibition at 5.2 µg/mL of 90%.
`CCOC(=O)c1ccc(NC(=O)C=C(c2ccc(Cl)cc2)c2ccc(Cl)cc2)cc1` [4-[3,3-Bis(p-chlorophenyl)acrylamido]benzoic acid, ethyl ester] was tested, and the inhibition at 5.2 µg/mL was 93%.
Work on `O=C(C=C(c1ccc(Cl)cc1)c1ccc(Cl)cc1)Nc1ccc(C(=O)O)cc1` [4-[3,3-Bis(p-chlorophenyl)acrylamido]benzoic acid] yielded an inhibition at 5.2 µg/mL of 91%.
`CCOC(=O)c1ccc(NC(=O)CC(c2ccc(Cl)cc2)c2ccc(Cl)cc2)cc1` [4-[3,3-Bis(p-chlorophenyl)propionamido]benzoic acid, ethyl ester] gave an inhibition at 5.2 µg/mL of 94%.
Work on `O=C(CC(c1ccc(Cl)cc1)c1ccc(Cl)cc1)Nc1ccc(C(=O)O)cc1` [4-[3,3-Bis(p-chlorophenyl)propionamido]benzoic acid] yielded an inhibition at 5.2 µg/mL of 71%.
In the case of `CCOC(=O)c1ccc(NC(=O)C=C(c2ccc(F)cc2)c2ccc(F)cc2)cc1` [4-[3,3-Bis(p-fluorophenyl)acrylamido]benzoic acid, ethyl ester], the inhibition at 5.2 µg/mL is reported as 74%.
Molecule `O=C(C=C(c1ccc(F)cc1)c1ccc(F)cc1)Nc1ccc(C(=O)O)cc1` [4-[3,3-Bis(p-fluorophenyl)acrylamido]benzoic acid] has an inhibition at 5.2 µg/mL of 79%.
In the case of `CCOC(=O)c1ccc(NC(=O)C=C(c2ccc(OC)cc2)c2ccc(OC)cc2)cc1` [4-[3,3-Bis(p-methoxyphenyl)acrylamido]benzoic acid, ethyl ester], the inhibition at 5.2 µg/mL is reported as 97%.
For `COc1ccc(C(=CC(=O)Nc2ccc(C(=O)O)cc2)c2ccc(OC)cc2)cc1` [4-[3,3-Bis(p-methoxyphenyl)acrylamido]benzoic acid], the inhibition at 5.2 µg/mL was 78%.
In the case of `CCOC(=O)c1ccc(NC(=O)C=C(c2ccc(C)cc2)c2ccc(C)cc2)cc1` [4-[3,3-Di-(p-tolyl)acrylamido]benzoic acid, ethyl ester], the inhibition at 5.2 µg/mL is reported as 97%.
With `Cc1ccc(C(=CC(=O)Nc2ccc(C(=O)O)cc2)c2ccc(C)cc2)cc1` [4-[3,3-Di-(p-tolyl)acrylamido]benzoic acid] the inhibition at 5.2 µg/mL was 89%.
Work on `CCOC(=O)c1ccc(NC(=O)CCCCCc2ccc(Cl)cc2)cc1` [4-[6-(p-Chlorophenyl)hexanamido]benzoic acid, ethyl ester] yielded an inhibition at 5.2 µg/mL of 42%.
In the case of `CCOC(=O)COC(=O)c1ccc(NC(=O)C=C(c2ccc(Cl)cc2)c2ccc(Cl)cc2)cc1` [4-[p-Chloro-β-(p-chlorophenyl)cinnamamido]benzoic acid, ethyl glycolate ester], the inhibition at 5.2 µg/mL is reported as 88%.
For `CCOC(=O)c1ccc(NC(=O)CC(c2ccc(OC)cc2)c2ccc(OC)cc2)cc1` [Ethyl 4'-[3,3-bis(4-methoxyphenyl)propionamido]benzoate], the inhibition at 5.2 µg/mL was 91%.
